These results are taken from patent US9090600B2, “Fungicidal 4-substituted-3-{phenyl[(heterocyclylmethoxy)imino]methyl}-1,2,4-oxadizol-5(4H)-one derivatives” (BAYER INTELLECTUAL PROPERTY GMBH, priority 2011, dated 2015).

Structures are written as SMILES. Marks after values point to notes of the source that are not given here.

For this series the following is noted: pH 2.7.
With `Cn1c(/C(=N\OCc2cccc(NC(=O)OCC(Cl)Cl)n2)c2ccccc2)noc1=O` [compound 461], the LogP is 3.74 [a].

With `CC(C)[C@@H]1CC[C@@H](C)C[C@H]1OC(=O)Nc1cccc(CO/N=C(/c2ccccc2)c2noc(=O)n2C)n1` [compound 462], the LogP was 5.9 [a].

As to `CCCCCCCCOC(=O)Nc1cccc(CO/N=C(/c2ccccc2)c2noc(=O)n2C)n1` [compound 465], the LogP is 5.65 [a].

As for `C=C(C)OC(=O)Nc1cccc(CO/N=C(/c2ccccc2)c2noc(=O)n2C)n1` [compound 466], the LogP is 3.37 [a].

`CCCc1ccc(OC(=O)Nc2cccc(CO/N=C(/c3ccccc3)c3noc(=O)n3C)n2)cc1` [compound 467]: the LogP was 4.74 [a].

For the compound `Cn1c(/C(=N\OCc2cccc(NC(=O)OCC#Cc3ccccc3)n2)c2ccccc2)noc1=O` [compound 468], the log partition coefficient (LogP) is 4.25 [a].

On to `CCCc1cccc(OC(=O)Nc2cccc(CO/N=C(/c3ccccc3)c3noc(=O)n3C)n2)c1` [compound 469], for which the LogP was 4.72 [a].

Regarding `Cc1cc(C)c(OC(=O)Nc2cccc(CO/N=C(/c3ccccc3)c3noc(=O)n3C)n2)c(C)c1` [compound 470], the LogP is 4.56 [a].

For the compound `Cn1c(/C(=N\OCc2cccc(NC(=O)OCCc3ccccn3)n2)c2ccccc2)noc1=O` [compound 471], the LogP is 2.07 [a].

`CN(C)CCCOC(=O)Nc1cccc(CO/N=C(/c2ccccc2)c2noc(=O)n2C)n1` [compound 472]: the LogP is 1.88 [a].

As for `Cn1c(/C(=N\OCc2cccc(NC(=O)OCC3CC3)n2)c2ccccc2)noc1=O` [compound 473], the LogP is 3.64 [a].

Regarding `Cn1c(/C(=N\OCc2cccc(NC(=O)OCc3ccc([N+](=O)[O-])cc3)n2)c2ccccc2)noc1=O` [compound 476], the LogP was 3.83 [a].

As for `Cn1c(/C(=N\OCc2cccc(NC(=O)OCc3cccc(C#N)c3)n2)c2ccccc2)noc1=O` [compound 477], the LogP was 3.65 [a].

With `CCc1ccc(OC(=O)Nc2cccc(CO/N=C(/c3ccccc3)c3noc(=O)n3C)n2)cc1` [compound 478], the LogP was 4.39 [a].

On to `C=COC(=O)Nc1cccc(CO/N=C(/c2ccccc2)c2noc(=O)n2C)n1` [compound 482], for which the LogP is 3.33 [a].

For the compound `Cn1c(C(=NOCc2cccc(NC(=O)OCC3CCCO3)n2)c2ccccc2)noc1=O` (stereo not drawn) [compound 483], the LogP was 3.11 [a].

As to `C#CCCCCOC(=O)Nc1cccc(CON=C(c2ccccc2)c2noc(=O)n2C)n1` [compound 484], the lipophilicity (LogP) is 3.78 [a].

In the case of `CC(OC(=O)Nc1cccc(CON=C(c2ccccc2)c2noc(=O)n2C)n1)C1CCCCC1` (stereo not drawn) [compound 485], the LogP was 5.25 [a].

For `Cn1c(C(=NOCc2cccc(NC(=O)OCCCCCCCl)n2)c2ccccc2)noc1=O` [compound 486], the LogP is 4.49 [a].

Consider `Cc1ccccc1COC(=O)Nc1cccc(CON=C(c2ccccc2)c2noc(=O)n2C)n1` [compound 487], for which the LogP was 4.29 [a].

Turning to `CCC=CCCCOC(=O)Nc1cccc(CON=C(c2ccccc2)c2noc(=O)n2C)n1` [compound 488], the LogP is 4.78 [a].

On to `COC(=O)C(C)(C)COC(=O)Nc1cccc(CON=C(c2ccccc2)c2noc(=O)n2C)n1` [compound 489], for which the LogP is 3.65 [a].

With `C=CCOCCOC(=O)Nc1cccc(CON=C(c2ccccc2)c2noc(=O)n2C)n1` [compound 490], the LogP is 3.37 [a].

Take `COC(=O)C(C)COC(=O)Nc1cccc(CON=C(c2ccccc2)c2noc(=O)n2C)n1` (stereo not drawn) [compound 491]: the LogP is 3.33 [a].

For `CC(C)c1ccc(OC(=O)Nc2cccc(CON=C(c3ccccc3)c3noc(=O)n3C)n2)cc1` [compound 492], the LogP is 4.67 [a].

On to `Cc1cccc(C)c1OC(=O)Nc1cccc(CON=C(c2ccccc2)c2noc(=O)n2C)n1` [compound 494], for which the LogP was 4.2 [a].

For the compound `Cn1c(C(=NOCc2cccc(NC(=O)OCc3ccccc3F)n2)c2ccccc2)noc1=O` [compound 495], the LogP is 4.01 [a].
